One assay has as its target T1, human ACSS2 (Homo sapiens, UniProt Q9NR19).
T1 construct: The cytosolic fraction of BT474 cells was used as a source of the ACSS2 enzyme; endogenous in cells; host or cells: BT474 cells (cytosolic fraction)
Nature of the assay: ACSS2 enzyme assay (acetyl-CoA formation, LC-MS/MS). The assay is classed as biochemical. Particulars: cytosolic fraction of BT474 cells as ACSS2 source; 100 μM acetate, CoA and ATP; 2 h at 25° C.; read-out: Enzyme Activity (IC50 range). In a few lines:
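Enzyme source was BT474 cytosolic fraction (100 ng), preincubated 5 min with compound in 25 mM Tris-HCl pH7.4, 1 mM MgCl2, 1 mM DTT, 0.05% Tween20, 1% DMSO. Reaction started with 100 μM each of acetate, CoA and ATP, 2 h at 25 °C, stopped with TCA; acetyl-CoA quantified by LC-MS/MS.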

In assay [1] the test system is [14C] acetate incorporation in macromolecules, BT474 cells. Briefly: Cell based [14C] acetate incorporation assay. Particulars: Homo sapiens, BT-474, 3 h at 37° C., read-out: Cellular Activity (IC50 range). The method in brief:
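BT474 cells (4×10^4/well, plated overnight) were preincubated with compound for 10 min at 37°C in HBSS. They were then given 0.1 μCi [14C]acetate plus 10 μM unlabelled acetate (both in the added acetate solution) for 3 h at 37°C, 5% CO2. Label incorporated into macromolecules was harvested onto PEI-treated filters and counted by scintillation.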

pIC50: −log10 of the molar value.

These results are taken from patent US20220298115A1, “SMALL MOLECULE INHIBITORS OF ACETYL COENZYME A SYNTHETASE SHORT CHAIN 2 (ACSS2)” (Curadev Pharma Pvt. Ltd., priority 2019, published 2022).

For orientation: pIC50 means the IC50 on a negative log10 scale, so that one unit is a factor of ten.

T1 sequence (Q9NR19 whole entry): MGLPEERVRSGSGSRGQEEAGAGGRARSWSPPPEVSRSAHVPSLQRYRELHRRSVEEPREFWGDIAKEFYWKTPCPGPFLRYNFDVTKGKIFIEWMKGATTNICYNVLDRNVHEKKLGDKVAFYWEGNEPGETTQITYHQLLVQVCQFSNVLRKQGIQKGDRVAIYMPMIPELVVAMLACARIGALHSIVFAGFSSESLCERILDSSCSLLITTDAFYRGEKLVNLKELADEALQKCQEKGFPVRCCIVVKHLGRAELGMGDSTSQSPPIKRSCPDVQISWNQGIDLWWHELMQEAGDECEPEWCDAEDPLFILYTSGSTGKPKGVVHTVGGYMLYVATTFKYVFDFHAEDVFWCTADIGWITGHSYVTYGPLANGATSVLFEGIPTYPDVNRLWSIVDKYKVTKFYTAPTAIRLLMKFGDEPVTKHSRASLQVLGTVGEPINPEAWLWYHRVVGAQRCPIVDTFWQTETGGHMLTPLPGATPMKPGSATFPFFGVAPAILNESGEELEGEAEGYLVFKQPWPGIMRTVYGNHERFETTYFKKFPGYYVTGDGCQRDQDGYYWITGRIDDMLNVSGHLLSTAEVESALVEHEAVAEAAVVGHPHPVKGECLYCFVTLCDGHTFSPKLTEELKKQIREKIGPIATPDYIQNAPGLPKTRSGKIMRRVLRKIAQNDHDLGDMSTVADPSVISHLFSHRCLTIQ

In the case of `CCC(O)CNC(=O)Nc1ccc2nc(-c3ccccc3F)c(-c3ccccc3F)cc2c1` (centres unmarked) [Example 4, 1-(2,3-bis(2-fluorophenyl)quinolin-6-yl)-3-(2-hydroxybutyl) urea], the pIC50 (at human ACSS2; in assay [1]) was greater than 7.00 in each case.

For the compound `CCCCCC(=O)Nc1ccc2nc(-c3ccccc3OC)c(-c3ccccc3OC)cc2c1` [Example 119, N-(2,3-bis(2-methoxy-phenyl)quinolin-6-yl) hexanamide], the pIC50 (at human ACSS2; in assay [1]) was greater than 7.00 each time.

As for `CCC(O)CNC(=O)Nc1ccc2nc(-c3cn[nH]c3)c(-c3cn[nH]c3)cc2c1` (centres unmarked) [Example 22, 1-(2,3-di(1H-pyrazol-4-yl)quinolin-6-yl)-3-(2-hydroxybutyl) urea], the pIC50 was no less than 5.00 at human ACSS2 and less than 5.00 in assay [1].

Regarding `CCC(O)CNC(=O)Nc1ccc2nc(-c3ccccc3)c(-c3ccccc3)c(C(N)=O)c2c1` (centres unmarked) [Example 49, 6-(3-(2-hydroxybutyl)ureido)-2,3-diphenylquino-line-4-carboxamide], the pIC50 (at human ACSS2; in assay [1]) was greater than 7.00 each time.

For `COCCNC(=O)Nc1ccc2nc(C)c(-c3ccccc3)cc2c1` [Example 78, 1-(2-methoxyethyl)-3-(2-methyl-3-phenylquinolin-6-yl)urea], the pIC50 (at human ACSS2; in assay [1]) was no less than 6.00 in each case.

Regarding `CC[C@H](CNC(=O)Nc1ccc2nc(-c3ccccc3)c(-c3ccccc3F)cc2c1)OP(=O)(O)O` [Example 117, (R)-1-(3-(3-(2-fluorophenyl)-2-phenylquinolin-6-yl)ureido)butan-2-yl dihydrogen phosphate], the pIC50 (on human ACSS2; in assay [1]) was greater than 7.00 each time.

For the compound `CC[C@@H](O)CNC(=O)Nc1ccc2nc(-c3ccccc3)c(C)c(C(N)=O)c2c1` [Example 109, (R)-6-(3-(2-hydroxybutyl)ureido)-3-methyl-2-phenylquinoline-4-carboxamide], the negative-log IC50 (pIC50) on human ACSS2 was greater than 7.00; in assay [1], no less than 6.00.

For the compound `CCC(O)CNC(=O)Nc1ccc2nc(C)cc(C(N)=O)c2c1` (centres unmarked) [Example 74, 6-(3-(2-hydroxybutyl)ureido)-2-methylquinoline-4-carboxamide], the results for the pIC50 (on human ACSS2; in assay [1]) were no less than 5.00 and less than 5.00, respectively.

For `CC[C@@H](O)CNC(=O)Nc1ccc2nc(-c3ccccc3)c(-c3ccccc3)c(C)c2c1` [Example 103, (R)-1-(2-hydroxybutyl)-3-(4-methyl-2,3-diphenylquinolin-6-yl)urea], the pIC50 (at human ACSS2; in assay [1]) was greater than 7.00 each time.

For the compound `O=C(Nc1ccc2nc(-c3ccccc3)c(-c3ccccc3)cc2c1)Nc1ccccn1` [Example 139, 1-(2,3-diphenylquinolin-6-yl)-3-(pyridin-2-yl)urea], the pIC50 (at human ACSS2; in assay [1]) was less than 5.00 in each case.

With `CCC(=O)CCC(=O)Nc1ccc2nc(-c3ccccc3F)c(-c3ccccc3F)cc2c1` [Example 124, N-(2,3-Bis(2-fluorophenyl)quinolin-6-yl)-4-oxohexanamide], the pIC50 (at human ACSS2; in assay [1]) was greater than 7.00 in each case.

Consider `CC[C@@H](O)CNC(=O)Nc1ccc2nc(-c3ccccc3)c(C)c(C(=O)Nc3ccn(C)n3)c2c1` [Example 115, (R)-6-(3-(2-Hydroxybutyl)ureido)-3-methyl-N-(1-methyl-1H-pyrazol-3-yl)-2-phenylquinoline-4-carboxamide], for which the pIC50 on human ACSS2 was greater than 7.00; in assay [1] it was no less than 6.00.

On to `CCC(O)CNC(=O)Nc1ccc2nc(-c3ccccc3)c(-c3ccccc3F)cc2c1` (centres unmarked) [Example 7, 1-(3-(2-fluorophenyl)-2-phenylquinolin-6-yl)-3-(2-hydroxybutyl) urea], for which the pIC50 (at human ACSS2; in assay [1]) was greater than 7.00 in each case.

With `CCC(O)CCC(=O)Nc1ccc2nc(-c3ccccc3F)c(-c3ccccc3F)cc2c1` (centres unmarked) [Example 128, N-(2,3-Bis(2-fluorophenyl)quinolin-6-yl)-4-hydroxyhexanamide], the pIC50 (on human ACSS2; in assay [1]) was greater than 7.00 in each case.

With `CCC(O)CNC(=O)Nc1ccc2nc(-c3ccncc3)c(-c3ccccc3F)cc2c1` (centres unmarked) [Example 34, 1-(3-(2-fluorophenyl)-2-(pyridin-4-yl)quinolin-6-yl)-3-(2-hydroxybutyl) urea], the pIC50 (at human ACSS2; in assay [1]) was greater than 7.00 each time.

As for `CC[C@H](O)CNC(=O)Nc1ccc2nc(-c3ccccc3)c(-c3ccccc3F)cc2c1` [Example 67, (S)-1-(3-(2-fluorophenyl)-2-phenylquinolin-6-yl)-3-(2-hydroxybutyl) urea], the pIC50 (at human ACSS2; in assay [1]) was greater than 7.00 each time.

As for `CC[C@H](O)CNC(=O)Nc1ccc2nc(-c3ccccc3F)c(-c3ccccc3F)cc2c1` [Example 28, (S)-1-(2,3-bis(2-fluorophenyl)quinolin-6-yl)-3-(2-hydroxybutyl) urea], the pIC50 (on human ACSS2; in assay [1]) was greater than 7.00 each time.

In the case of `CCC(F)(F)CNC(=O)Nc1ccc2nc(C)c(-c3ccccc3)cc2c1` [Example 105, 1-(2,2-difluorobutyl)-3-(2-methyl-3-phenylquinolin-6-yl)urea], the pIC50 (at human ACSS2; in assay [1]) was greater than 7.00 throughout.

Take `Cn1cc(NC(=O)Nc2ccc3nc(-c4ccccc4)c(-c4ccccc4)cc3c2)cn1` [Example 144, 1-(2,3-diphenylquinolin-6-yl)-3-(1-methyl-1H-pyrazol-4-yl)urea]: the pIC50 was no less than 6.00 on human ACSS2 and greater than 7.00 in assay [1].

`CC[C@@H](O)CNC(=O)Nc1ccc2nc(-c3ccccc3OC)c(-c3ccccc3F)cc2c1` [Example 35, (R)-1-(3-(2-fluorophenyl)-2-(2-methoxyphenyl)quinolin-6-yl)-3-(2-hydroxybutyl) urea]: the pIC50 (at human ACSS2; in assay [1]) was greater than 7.00 each time.

`CCC(O)CNC(=O)Nc1ccc2nc(C)c(-c3ccccc3)cc2c1C` (centres unmarked) [Example 85, 1-(2,5-dimethyl-3-phenylquinolin-6-yl)-3-(2-hydroxybutyl) urea]: the pIC50 (at human ACSS2; in assay [1]) was greater than 7.00 in each case.

On to `CCC(O)CNC(=O)Nc1ccc2nc(/C=C/c3ccccc3)c(-c3ccccc3)cc2c1` (centres unmarked) [Example 50, (E)-1-(2-hydroxybutyl)-3-(3-phenyl-2-styrylquinolin-6-yl)urea], for which the pIC50 on human ACSS2 was no less than 5.00; in assay [1], less than 5.00.

With `CC[C@@H](O)CNC(=O)Nc1ccc2nc(-c3ccccc3)c(-c3ccccc3F)cc2c1` [Example 15, (R)-1-(3-(2-Fluorophenyl)-2-phenylquinolin-6-yl)-3-(2-hydroxybutyl)urea], the pIC50 (on human ACSS2; in assay [1]) was greater than 7.00 each time.

Consider `CC[C@@H](O)CNC(=O)Nc1ccc2nc(C)c(-c3ccccc3)cc2c1` [Example 72, (R)-1-(2-Hydroxybutyl)-3-(2-methyl-3-phenylquinolin-6-yl)urea], for which the pIC50 (at human ACSS2; in assay [1]) was greater than 7.00 throughout.

With `CCC(CNC(=O)Nc1ccc2nc(-c3ccccc3)c(-c3ccccc3F)cc2c1)OC` (centres unmarked) [Example 44, 1-(3-(2-fluorophenyl)-2-phenylquinolin-6-yl)-3-(2-methoxybutyl) urea], the pIC50 (on human ACSS2; in assay [1]) was greater than 7.00 in each case.

In the case of `CCC(O)CNC(=O)Nc1ccc2nc(-c3ccccc3)c(-c3ccccc3)c(N)c2c1` (centres unmarked) [Example 95, 1-(4-Amino-2,3-diphenylquinolin-6-yl)-3-(2-hydroxybutyl)urea], the pIC50 (on human ACSS2; in assay [1]) was greater than 7.00 throughout.

As for `CCC(O)CNC(=O)Nc1ccc2nc(C)c(C)c(C(N)=O)c2c1` (centres unmarked) [Example 69, 6-(3-(2-hydroxybutyl)ureido)-2,3-dimethylquino-line-4-carboxamide], the pIC50 on human ACSS2 was no less than 5.00; in assay [1] it was less than 5.00.

For the compound `CC[C@@H](O)CNC(=O)Nc1cc2cc(-c3ccccc3)c(-c3ccccc3)nc2cc1F` [Example 90, (R)-1-(7-fluoro-2,3-diphenylquinolin-6-yl)-3-(2-hydroxybutyl) urea], the pIC50 (at human ACSS2; in assay [1]) was no less than 6.00 each time.

For the compound `CCC(O)CNC(=O)Nc1ccc2nc(-c3cnn(C)c3)c(-c3ccccc3)cc2c1` (centres unmarked) [Example 43, 1-(2-hydroxybutyl)-3-(2-(1-methyl-1H-pyrazol-4-yl)-3-phenylquinolin-6-yl)urea], the pIC50 is greater than 7.00 on human ACSS2 and no less than 6.00 in assay [1].

`CCC(O)CNC(=O)Nc1ccc2nc(-c3ccncc3)c(-c3ccncc3)cc2c1` (centres unmarked) [Example 24, 1-(2,3-di(pyridin-4-yl)quinolin-6-yl)-3-(2-hydroxybutyl) urea]: the values for the pIC50 (at human ACSS2; in assay [1]) were no less than 6.00 and no less than 5.00, respectively.

Regarding `CCC(O)CNC(=O)Nc1ccc2nc(C3CCCCC3)c(-c3ccccc3F)cc2c1` (centres unmarked) [Example 39, 1-(2-cyclohexyl-3-(2-fluorophenyl)quinolin-6-yl)-3-(2-hydroxybutyl) urea], the pIC50 at human ACSS2 is less than 5.00; in assay [1] it was no less than 5.00.

As for `O=C(Nc1ccccc1)Nc1ccc2nc(-c3ccccc3)c(-c3ccccc3)cc2c1` [Example 140, 1-(2,3-diphenylquinolin-6-yl)-3-phenylurea], the pIC50 (at human ACSS2; in assay [1]) was less than 5.00 each time.

Take `CCC(CNC(=O)Nc1ccc2nc(C)c(-c3ccccc3)cc2c1)NC(C)=O` (centres unmarked) [Example 99, N-(1-(3-(2-methyl-3-phenylquinolin-6-yl)ureido)butan-2-yl)acetamide]: the pIC50 (on human ACSS2; in assay [1]) was no less than 6.00 throughout.

`CC[C@@H](O)CNC(=O)Nc1ccc2nc(-c3ccccc3)c(-c3ccccc3)c(OC)c2c1` [Example 101, (R)-1-(2-Hydroxybutyl)-3-(4-methoxy-2,3-diphenylquinolin-6-yl)urea]: the pIC50 (on human ACSS2; in assay [1]) was greater than 7.00 each time.
